The values that follow come from patent US20230181474A1, “TABLET COMPRISING OPICAPONE” (Ono Pharmaceutical Co., Ltd., priority 2020, published 2023).

SMILES strings stand for the structures.

The series is described as follows: Evaluation of particle size by dynamic particle image analysis (iSpect DIA-10). The settings on record: dispersion medium 10% polysorbate 20 aqueous solution. The series is classed as physicochemical. An excerpt:
In the present specification, “maximum length” refers to a maximum length between two points on a contour of a particle, and this may be measured by the dynamic image analysis method. An example of the equipment used for measurement is the dynamic particle image analysis system iSpect DIA-10 (Shimadzu Corporation). In the present invention, the maximum length of particles of opicapone or a pharmaceutically acceptable salt thereof in terms of D50 value is less than 46 µm, preferably 45 µm or less, more preferably 40 µm or less, even more preferably 35 µm or less, and particularly preferably 30 µm or less or 29 µm or less. In the present invention, the maximum length of particles of opicapone or a pharmaceutically acceptable salt thereof in terms of D90 value is, for example, less than 111 µm, preferably 110 µm or less, more preferably 100 µm or less, even more preferably 90 µm or less, and particularly preferably 80 µm or less.
In the present specification, “equivalent circle diameter” refers to the diameter of a circle that has the same area as the projected area of a particle image, and this may be measured by the dynamic image analysis method. An example of the equipment used for measurement is the dynamic particle image analysis system iSpect DIA-10 (Shimadzu Corporation).
The particle sizes of the non-micronized product and the micronized products A1 to A4 prepared in Example 1 using the opicapone drug substance were measured under the following conditions.
• Measurement equipment: Dynamic particle image analysis system iSpect DIA-10 (Shimadzu Corporation) • Evaluation items: Equivalent circle diameter, maximum length • Dispersion medium: 10% polysorbate 20 aqueous solution • Sample: Approximately 10 mg of the measurement sample was placed in 1 ml of the dispersion medium, suspended, and then diluted 100-fold.

As to `Cc1nc(Cl)c(-c2noc(-c3cc(O)c(O)c([N+](=O)[O-])c3)n2)c(C)c1Cl` [Micronized Product A2], the “Equivalent Circle Diameter D10” value stood at 7 µm, the “Equivalent Circle Diameter D50” value is 11 µm, the “Equivalent Circle Diameter D90” value stood at 18 µm and the “Maximum Length D10” value worked out at 16 µm. Further, the “Maximum Length D50” value is listed as 26 µm and the “Maximum Length D90” value is listed as 60 µm.
For the compound `Cc1nc(Cl)c(-c2noc(-c3cc(O)c(O)c([N+](=O)[O-])c3)n2)c(C)c1Cl` [Micronized Product A3], the “Equivalent Circle Diameter D10” value came out at 7 µm, the “Equivalent Circle Diameter D50” value came out at 11 µm, the “Equivalent Circle Diameter D90” value came out at 19 µm and the “Maximum Length D10” value is 15 µm. The “Maximum Length D90” value was 73 µm.
Turning to `Cc1nc(Cl)c(-c2noc(-c3cc(O)c(O)c([N+](=O)[O-])c3)n2)c(C)c1Cl` [Micronized Product A 1], the “Equivalent Circle Diameter D10” value turned out to be 7 µm, the “Equivalent Circle Diameter D50” value is recorded as 11 µm, the “Maximum Length D10” value stood at 16 µm and the “Maximum Length D50” value is 28 µm. Also, the “Maximum Length D90” value is recorded as 63 µm.
Take `Cc1nc(Cl)c(-c2noc(-c3cc(O)c(O)c([N+](=O)[O-])c3)n2)c(C)c1Cl` [Non-micronized Product]: the “Equivalent Circle Diameter D10” value is listed as 6 µm, the “Equivalent Circle Diameter D50” value is given as 13 µm, the “Equivalent Circle Diameter D90” value came to 23 µm and the “Maximum Length D10” value is listed as 16 µm. The “Maximum Length D90” value was 111 µm.
